These results are taken from ChEMBL document CHEMBL1139097, “Synthesis and QSAR studies on hypotensive 1-[3-(4-substituted phenylthio) propyl]-4-(substituted phenyl) piperazines” (Bioorg Med Chem Lett, 2007).

The test system of one assay is Felis catus. Description: Hypotensive activity in anaesthetized cat assessed as blood pressure fall at 2 umol/kg, iv. In kind it is functional.
The target of assay [1] is 5-hydroxytryptamine receptor 2A (Rattus norvegicus) (UniProt P14842). Briefly: Displacement of [3H]ketanserin from rat cloned 5HT2A receptor expressed in NIH-3T3-GF6 cells at 10^-6M relative to ketanserin. The format is cell-based. Background: Displacement assays read how much labelled ligand stays bound in the presence of the test substance.
Sequence of 5-hydroxytryptamine receptor 2A (Rattus norvegicus) (P14842 whole entry): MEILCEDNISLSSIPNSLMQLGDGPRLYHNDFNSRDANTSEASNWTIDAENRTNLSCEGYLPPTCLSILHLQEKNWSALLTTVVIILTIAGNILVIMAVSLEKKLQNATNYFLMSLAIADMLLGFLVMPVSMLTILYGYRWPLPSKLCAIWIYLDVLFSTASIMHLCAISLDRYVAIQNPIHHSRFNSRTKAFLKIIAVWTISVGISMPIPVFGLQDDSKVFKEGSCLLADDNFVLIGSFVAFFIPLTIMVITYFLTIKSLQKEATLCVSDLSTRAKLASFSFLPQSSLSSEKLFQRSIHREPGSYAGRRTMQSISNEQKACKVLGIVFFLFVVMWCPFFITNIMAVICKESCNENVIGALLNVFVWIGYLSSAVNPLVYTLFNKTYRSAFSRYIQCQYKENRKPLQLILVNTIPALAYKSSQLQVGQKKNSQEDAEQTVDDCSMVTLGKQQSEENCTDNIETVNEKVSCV
Assay [2] has as its target 5-hydroxytryptamine receptor 2A (Rattus norvegicus, UniProt P14842). Description: Displacement of [3H]ketanserin from rat cloned 5HT2A receptor expressed in NIH-3T3-GF6 cells. In kind it is cell-based.

Sequence of 5-hydroxytryptamine receptor 2A (P14842 whole entry): as above

Turning to `COc1ccccc1N1CCN(CCCSc2ccc(Br)cc2)CC1`, the Activity with Felis catus is listed as 21.59%.

In the case of `COc1ccc(SCCCN2CCN(c3cccc(C(F)(F)F)c3)CC2)cc1`, in the assay with Felis catus, the Activity stood at 53.42%. For the compound `Fc1ccc(N2CCN(CCCSc3ccc(Cl)cc3)CC2)cc1`, the Activity with Felis catus was found to be 42.31%.

Regarding `Fc1ccc(SCCCN2CCN(c3ccc(Cl)c(Cl)c3)CC2)cc1`, the Activity in the assay on Felis catus is 38.3%. On to `Fc1ccc(N2CCN(CCCSc3ccc(Br)cc3)CC2)cc1`, for which the Activity in the assay with Felis catus amounted to 19.86%. For the compound `CC(=O)Nc1ccc(SCCCN2CCN(c3ccc(Cl)c(Cl)c3)CC2)cc1`, the Activity in the assay on Felis catus came out at 20%. For `Clc1cccc(N2CCN(CCCSc3ccccc3)CC2)c1`, the Activity in the assay on Felis catus is given as 55.99%.

As for `COc1ccc(SCCCN2CCN(c3ccc(F)cc3)CC2)cc1`, the Activity with Felis catus was found to be 17.46%. Consider `COc1ccc(SCCCN2CCN(c3ccc(Cl)c(Cl)c3)CC2)cc1`, for which the Activity in the assay on Felis catus turned out to be 21.05%. `Fc1ccc(SCCCN2CCN(c3ccccc3)CC2)cc1`: the Activity in the assay with Felis catus came out at 14.28%; in assay [1] it was 37%. Consider `COc1ccccc1N1CCN(CCCSc2ccccc2)CC1`, for which the Activity in the assay on Felis catus stood at 26.23%. With `COc1ccc(SCCCN2CCN(c3cccc(F)c3)CC2)cc1`, the Activity in the assay with Felis catus turned out to be 17.02%. By Ki is commonly meant the dissociation constant of the complex between target and ligand, obtained from inhibition or displacement. As for `CC(=O)Nc1ccc(SCCCN2CCN(c3ccccc3C)CC2)cc1`, the inhibitory constant (Ki) in assay [2] was found to be 21.1 nM. For the same compound, the Activity with Felis catus worked out at 51.61%; in assay [1], 72.7%. For the compound `COc1ccc(SCCCN2CCN(c3cccc(C)c3)CC2)cc1`, the Activity in the assay with Felis catus is 21.4%.

Regarding `Fc1ccc(SCCCN2CCN(c3ccc(F)cc3)CC2)cc1`, the Activity stood at 20.66% in the assay with Felis catus and 32.9% in assay [1]. As for `Fc1ccc(SCCCN2CCN(c3cccc(F)c3)CC2)cc1`, the Activity with Felis catus was 34%.

On to `O=[N+]([O-])c1ccc(SCCCN2CCN(c3ccc(F)cc3)CC2)cc1`, for which the Activity in the assay on Felis catus turned out to be 25.87%. For the compound `Cc1ccccc1N1CCN(CCCSc2ccc(F)cc2)CC1`, the Activity in the assay with Felis catus is given as 37.59%.

In assay [2], `Cc1cccc(N2CCN(CCCSc3ccc([N+](=O)[O-])cc3)CC2)c1` gave a Ki of 21.1 nM. Besides, the results for the Activity (in the assay with Felis catus; in assay [1]) were 84.41% and 80.5%, respectively. Consider `Cc1ccc(SCCCN2CCN(c3ccccc3C)CC2)cc1`, for which, in the assay on Felis catus, the Activity is listed as 61.02%. For `Cc1cccc(N2CCN(CCCSc3ccccc3)CC2)c1`, affinity in assay [2] was put at a Ki of 13.6 nM. The Activity in the assay with Felis catus was found to be 65.15%; in assay [1], 75.6%. In the case of `CCNc1ccc(SCCCN2CCN(c3cccc(C)c3)CC2)cc1`, the Activity with Felis catus amounted to 41.14%. With `COc1ccc(N2CCN(CCCSc3ccc(F)cc3)CC2)cc1`, the Activity in the assay with Felis catus is 12.49%; in assay [1], 25.7%. For the compound `Cc1ccc(SCCCN2CCN(c3cccc(C)c3)CC2)cc1`, in the assay with Felis catus, the Activity is 55.74%.

Take `Cc1ccc(SCCCN2CCN(c3ccc(F)cc3)CC2)cc1`: the Activity in the assay with Felis catus was found to be 21.74%. Regarding `COc1ccc(N2CCN(CCCSc3ccccc3)CC2)cc1`, in the assay with Felis catus, the Activity was determined as 15.38%. With `Clc1ccc(N2CCN(CCCSc3ccccc3)CC2)cc1Cl`, the Activity in the assay with Felis catus came out at 45.83%. As for `Nc1ccc(SCCCN2CCN(c3ccc(F)cc3)CC2)cc1`, the Activity in the assay with Felis catus worked out at 13.51%. Regarding `COc1ccc(N2CCN(CCCSc3ccc(Br)cc3)CC2)cc1`, the Activity with Felis catus came to 23.06%; in assay [1], 37.1%. Turning to `COc1ccc(SCCCN2CCN(c3cccc(Cl)c3)CC2)cc1`, the Activity in the assay on Felis catus worked out at 42.62%. In the case of `Cc1cccc(N2CCN(CCCSc3ccc(N)cc3)CC2)c1`, the Activity in the assay with Felis catus is reported as 24.28%. As for `CC(=O)Nc1ccc(SCCCN2CCN(c3ccc(F)cc3)CC2)cc1`, the Activity was determined as 21.21% in the assay with Felis catus and 85.4% in assay [1]. In the case of `Clc1ccc(SCCCN2CCN(c3ccc(Cl)c(Cl)c3)CC2)cc1`, the Activity with Felis catus was 26.58%. Turning to `Cc1ccccc1N1CCN(CCCSc2ccc([N+](=O)[O-])cc2)CC1`, the Activity with Felis catus turned out to be 42%.

For the compound `CCNc1ccc(SCCCN2CCN(c3ccccc3C)CC2)cc1`, in the assay with Felis catus, the Activity worked out at 48.65%.

Turning to `c1ccc(SCCCN2CCN(c3ccccc3)CC2)cc1`, the Activity stood at 41.07% in the assay with Felis catus and 37.4% in assay [1].

As for `Cc1cccc(N2CCN(CCCSc3ccc(F)cc3)CC2)c1`, the Activity with Felis catus was found to be 38.3%.

As for `Cc1cccc(N2CCN(CCCSc3ccc(Cl)cc3)CC2)c1`, the Activity in the assay with Felis catus came to 43.8%. The same measure, in the same setting: for `Cc1ccc(SCCCN2CCN(c3ccc(Cl)c(Cl)c3)CC2)cc1` the value was 36.36%. Consider `Fc1ccc(N2CCN(CCCSc3ccccc3)CC2)cc1`, for which, in the assay with Felis catus, the Activity came to 20.69%. On the same count and under the same terms, with `Cc1ccccc1N1CCN(CCCSc2ccc(Cl)cc2)CC1` the figure was 40%. On to `CC(=O)Nc1ccc(SCCCN2CCN(c3cccc(C)c3)CC2)cc1`, for which, in assay [2], affinity was put at a Ki of 6.09 nM. In addition, the Activity stood at 55% with Felis catus and 94.7% in assay [1].
